This is an account of results in patent US20060205787A1, “Methods and compositions using 4-amino-2-(3-methyl-2,6-dioxopiperidin-3-yl)-isoindole-1,3-dione” (priority 2005, published 2006).

A word on the melting point: it is the temperature, or range, at which the solid turns liquid.

The compound `C[C@]1(N2C(=O)c3cccc(NC(=O)CN)c3C2=O)CCC(=O)NC1=O.Cl` gave a melting point of more than 260 °C.

On to `C[C@]1(N2C(=O)c3cccc(N)c3C2=O)CCC(=O)NC1=O` [Example 5.1.11, (3S)-4-Amino-2-(3-Methyl-2,6-Dioxopiperidin-3-yl)-Isoindole-1,3-Dione], for which the melting point was in the range of 235 to 237 °C.

`CC1(N2C(=O)c3cccc(NC(=O)CN)c3C2=O)CCC(=O)NC1=O.Cl` (stereo not drawn) came in with a melting point of 111 to 113 °C.
